Legend:
[1] = test system: glutamate release from hippocampus; assay: temporary brain ischemia, glutamate outside hippocampus neurons by micro-dialysis; assay type: in vivo, gerbil; details: pre-administration; compared with effect of D-allose
Description: (2) Method: The bilateral common carotid artery of a gerbil was shut off for 5 minutes. After 1 week, the gerbil was sacrificed and a sample was prepared in accordance with the ordinary method, followed by hematoxyline eosin dyeing. The survival rate was measured by counting the number of hippocampus neurons while looking at them under a microscope. Experiments were performed on a normal control group, a group subjected to only ischemia, and a group administrated with 200 mg/kg of D-allose or D-psicose before ischemia. It is known that glutamates released in large amount from the neurons with ischemia are toxic to the neurons. Such a point was examined by fixing the gerbil to a brain position fixing device, perfusing a solution, in which oxidase glutamate is dissolved, to the hippocampus through a probe for micro-dialysis, and measuring the glutamate concentration outside the hippocampus neurons. Also, the inventors have clarified the relationship between the metabolism of glucose and the action mechanism of D-allose with ischemia by pre-administrating D-allose and 2-deoxiglucose.

[2] = test system: HL-60; assay: blood-system cancer cell strain proliferation, Coulter Counter, HL60; assay type: cell-based; details: 0.05-50 mM, 7 days, D-glucose control
Description: (§1) (2) Method: Total 6 kinds of cell strains, i.e., Myeloid (HL-60, THP-1, KG-1), T-cell (MT-2), and B-Cell (Daudi, KS-1), and 3 kinds of rare saccharides (i.e., D-psicose, D-altrose, and D-allose), were employed. The culture medium and the cells were prepared to be 1 mL in total and 1×10^5 in number, respectively. Then, the cell number at each of fourth day and seventh day was counted by using a Coulter Counter. Each rare saccharide was added at concentrations of 0.05, 0.5, 5 and 50 mM, while D-glucose was used as a control.
(§2) Culture Medium: FBS 10% added RPMI1460
(§3) Cultivation Conditions: 37° C., 5% CO2
(§4) Cultivation Vessel: FALCON, MULTIWELL, 12 wells
(§5) Number of Cultivation Days: 7 days
(§6) Saccharides Concentration: 0.05, 0.5, 5, 50 mM

[3] = test system: Rat leukocyte (granulocyte); assay: production of active oxygen from leukocyte, LO12 chemiluminescence, zymosan; assay type: cell-based; details: saccharide 10 mM added to the producing system, zymosan
Description: Influences of various kinds of rare saccharides upon production of active oxygen from leukocyte were examined under the conditions given below. In this Example 5, an effect against the production of active oxygen from leukocyte was examined with LO12 chemiluminescence.
(1) Target leukocyte to which the rare saccharides were added: Rat leukocyte (granulocyte) was used.
(2) Rare saccharides added: In addition to D-allose as a rare saccharide belonging to aldose, D-psicose and D-altros as rare saccharides belonging to ketose and D-tallitol belong to polyol were added as other comparative saccharides. Further, D-glucose and D-fructose were employed as saccharides abundant in the natural world.
(3) Experiment method: (1) Changes over time in production of active oxygen from rat leukocyte . . . The time-dependent progress in production of active oxygen caused by adding zymosan particles to rat leukocyte (granulocyte) was examined. Also, the time-dependent progress in production of active oxygen caused under the presence of each of the rare saccharides was examined.
(2) Influences of rare saccharides upon production of active oxygen . . . By adding the various saccharides to the system for producing active oxygen from leukocyte, the amount of produced active oxygen was measured for each saccharide. The concentration of each of the added rare saccharides was set to 10 mM. Also, the measurement was made under the condition without addition of any saccharides.
(3) Effect of rare saccharides upon production of active oxygen . . . The rare saccharides were each added at concentration of 10 mM after the start of phagocytosis and the start of the production of active oxygen subsequent to addition of zymosan to leukocyte.
(4) Concentration dependency of active-oxygen production inhibitory effect of D-allose . . . Concentration dependency of the active-oxygen production inhibitory effect of D-allose was examined. D-allose was added at concentration of 0 mM, 5 mM and 10 mM.

[4] = test system: ovary cancer cells (OVCAR3); assay: proliferation of cultured cells, MTT method, OVCAR3; assay type: cell-based; details: saccharide 50 mM, 4 to 5 days, MTT
Description: (§7) Various kinds of rare saccharides were added at a concentration of 50 mM to culture media under the following conditions, and an influence of each rare saccharide upon the progress of proliferation of cancer cell strains was examined.
(§8) (1) Target cells to which the rare saccharides were added: Hepatic cancer cells (HepG2), uterine cancer cells (He1a), ovary cancer cells (OVCAR3), and skin keratinocyte (HaCaT) were selected as target cells to which the rare saccharides were added.
(§9) (2) Rare saccharides added: In addition to D-allose, glucose and D-altros as rare saccharides belonging to ketose were added, as other comparative saccharides, to the addition target cells. Also, D-fructose was employed as a control.
(§10) (3) Experiment method: A number 3,000-5,000 of addition target cells per type were inoculated into a multi-well plastic dish (hereinafter referred to as a “well”) having 96 wells, and were cultured for 4 to 5 days in a culture medium supplemented with 5 to 10% of Fetal Bovine Serum (FBS) depending on the cell types. D-Allose, D-glucose and D-altros were each added at concentration of 50 mM to the addition target cells per type. Similarly, D-fructose as a control was added at a concentration of 50 mM. To examine the influence upon the cell proliferation, the cell number was measured in units of 24 hours by using the MTT method described below.
(1) Preparation of reagents: A predetermined amount of MTT (tetrazolium salt) was dissolved in PBS(−) sterilized in an autoclave to obtain an MTT solution through filtering and sterilization. An acidic solution was prepared by adding 50 mL of N,N-dimethylformaldehyde and water to a predetermined amount of (20 g) of SDS, thereby obtaining a 100 mL of solution. About […] of 1N hydrochloric acid was added to the solution for adjustment of a pH-value to 4.7. The solution was preserved at room temperature and warmed up to 37° C. just before the use.
(2) Test method: The cells were treated with TEP to prepare a cell suspension liquid. This cell suspension liquid was pipetted in a predetermined cell-density (300 to 52000 cells/well) to each well (96-well plate: 0.1 mL of culture medium per well). The saccharide as a drug was added in a predetermined amount to each well, followed by cultivation for a whole day and night in a CO2 incubator. Then, 0.5 mg/mL of the MTT solution was added and the resulting culture was incubated for 4 hours in the incubator. Thereafter, the culture medium was completely removed. Then, in a room kept at 37° C., an acid solution was added in amount of 0.1 mL/well. The well plate was placed on a micro-plate mixer and shaken at 37° C. for 20 minutes to dissolve a colored substance (namely, to dissolve “formazan” in the acid solution). The absorbance of the liquid was measured at a wavelength of 570 to 600 nm by using a spectrophotometer. After dissolving the colored substance (formazan) in the acid solution, the absorbance can be measured directly by a plate reader.
(1) Experiment method: The ovary cancer cells (OVCAR3) were selected as target cells to which a rare saccharide was added, and D-allose as the saccharide was added at concentrations of 1 mM, 5 mM, 10 mM, 20 mM, 50 mM and 100 mM. The experimental conditions, such as the method of culturing the ovary cancer cells (OVCAR3) and the method of measuring the cell number (MTT method), were the same as those in Example 1.

[5] = test system: Hepatic cancer cells (HepG2); assay: proliferation of cultured cells, MTT method, HepG2; assay type: cell-based, human; details: saccharide 50 mM, 4 to 5 days
Description: as §7, §8, §9, §10
(1) Preparation of reagents: A predetermined amount of MTT (tetrazolium salt) was dissolved in PBS(−) sterilized in an autoclave to obtain an MTT solution through filtering and sterilization. An acidic solution was prepared by adding 50 mL of N,N-dimethylformaldehyde and water to a predetermined amount of (20 g) of SDS, thereby obtaining a 100 mL of solution. […]
(2) Test method: The cells were treated with TEP to prepare a cell suspension liquid. […] The absorbance of the liquid was measured at a wavelength of 570 to 600 nm by using a spectrophotometer. After dissolving the colored substance (formazan) in the acid solution, the absorbance can be measured directly by a plate reader.

[6] = test system: skin keratinocyte (HaCaT); assay: proliferation of cultured cells, MTT method, HaCaT; assay type: cell-based, human; details: saccharide 50 mM, 4 to 5 days
Description: as §7, §8, §9
(3) Experiment method: A number 3,000-5,000 of addition target cells per type were inoculated into a multi-well plastic dish (hereinafter referred to as a “well”) having 96 wells, and were cultured for 4 to 5 days in a culture medium supplemented with 5 to 10% of Fetal Bovine Serum (FBS) depending on the cell types. […] To examine the influence upon the cell proliferation, the cell number was measured in units of 24 hours by using the MTT method described below. […]
(2) Test method: The cells were treated with TEP to prepare a cell suspension liquid. […] The absorbance of the liquid was measured at a wavelength of 570 to 600 nm by using a spectrophotometer. […]

[7] = test system: Daudi; assay: blood-system cancer cell strain proliferation, Coulter Counter, Daudi; assay type: cell-based; details: 0.05-50 mM, 7 days, D-glucose control
Description: as §1, §2, §3, §4, §5, §6

[8] = biological target: human albumin (Homo sapiens, UniProt P02768); assay: saccharification (glycation) of albumin, glycoalbumin reagent; assay type: biochemical; details: albumin 3 g/dl
Description: (2) Method: After fragmenting albumin into amino acids by using protease K, i.e., glycoalbumin (GA) measurement reagent (made by Oriental Yeast Co., Ltd.), glycolysine was measured by using ketoamine oxydase (see FIG. 38). Glycation of human albumin with various rare saccharides was examined. A sample was prepared through the steps of dissolving 3 g/dl of pure human albumin in PBS and then dissolving each of the rare saccharides so as to prepare a solution in final concentration of 55.5 mM. The prepared solution was filtrated with a filter of 0.25 μm mesh and sterilized, followed by incubation at 37° C. for 7 days. During the incubation, the GA concentration (glycolysine concentration) was measured at intervals of exactly 24 hours. Further, similar experiments were conducted by adding each of the rare saccharides in an albumin solution (final concentration 3 g/dl) and a glucose solution (final concentration 55.5 mM) so that each of the rare saccharides had final concentration of 55.5 mM.

[9] = saccharide 55.5 mM, 37° C., 7 days

human albumin, sequence (P02768 25-609): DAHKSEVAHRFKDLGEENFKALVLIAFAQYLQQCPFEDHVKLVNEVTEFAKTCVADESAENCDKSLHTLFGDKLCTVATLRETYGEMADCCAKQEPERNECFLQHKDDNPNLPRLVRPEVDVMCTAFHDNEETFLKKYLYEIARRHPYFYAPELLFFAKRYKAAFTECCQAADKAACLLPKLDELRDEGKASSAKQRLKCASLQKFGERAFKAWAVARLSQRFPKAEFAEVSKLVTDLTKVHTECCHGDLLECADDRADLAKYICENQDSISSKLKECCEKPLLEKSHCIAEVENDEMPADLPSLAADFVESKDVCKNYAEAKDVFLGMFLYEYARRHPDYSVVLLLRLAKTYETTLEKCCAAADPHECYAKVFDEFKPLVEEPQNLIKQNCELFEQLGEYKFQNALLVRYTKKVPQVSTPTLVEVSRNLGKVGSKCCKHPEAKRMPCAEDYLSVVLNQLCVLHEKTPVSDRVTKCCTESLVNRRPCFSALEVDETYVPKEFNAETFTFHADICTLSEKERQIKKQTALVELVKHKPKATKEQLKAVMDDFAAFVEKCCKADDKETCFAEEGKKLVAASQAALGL

With `O=CC[C@@H](O)[C@H](O)[C@H](O)CO` [2-deoxyglucose, reference compound] the “glutamate release inhibitory effect” value [1] was “similarly observed”.
With `O=C[C@@H](O)[C@H](O)[C@H](O)[C@H](O)CO` [D-altrose, reference compound] the “HL60 proliferation inhibitory effect” value [2] was “showed no effect”, the “production of active oxygen from leukocyte” value [3] was “No inhibitory effect” and the “proliferation of OVCAR3 cells (cell number over time)” value [4] was “weaker than that of D-allose”. For the same compound, the “proliferation of HepG2 cells (cell number over time)” value [5] was “weaker than that of D-allose”, the “proliferation of HaCaT cells (cell number over time)” value [6] was “inhibitory effect at a medium level” and the “Daudi-cell proliferation inhibitory effect” value [7] was “showed no effect”.
In the case of `O=C(CO)[C@@H](O)[C@H](O)[C@H](O)CO` [D-fructose, reference compound], the “glycation (saccharification) of albumin” value [8, 9] is reported as “do not cause the saccharification”.
For `O=C[C@@H](O)[C@@H](O)[C@H](O)[C@H](O)CO` [D-mannose, reference compound], the “saccharification rate of albumin under coexistence with glucose” value ([8]; saccharide 55.5 mM + D-glucose 55.5 mM) was “about 100 μmol/day” and the “saccharification rate of albumin” value [8, 9] was “about 50 μmol/day”.
In the case of `OC[C@@H](O)[C@H](O)[C@H](O)[C@H](O)CO` [D-tallitol, reference compound], the “production of active oxygen from leukocyte” value [3] is reported as “No inhibitory effect”.

Source: patent US8420606B2, “Method of utilizing physiological activity of rare saccharide and composition containing rare saccharide” (priority 2002, dated 2013)
